Assay results from patent US11433042B2, “Methods and compositions for treating metabolic disorders” (Joslin Diabetes Center, Inc., priority 2017, dated 2022).

Experiments:
CD36 = assay: Membrane fractionation and immunoblot, CD36; type: cell-based; conditions: differentiated WT-1 brown adipocytes, 1 μM for 15 minutes
Protocol: WT-1 brown preadipocytes were differentiated according to a standard adipogenic differentiation protocol for 9 days before cells were serum starved for 1 hour. Cells were treated with 1 μM 12,13-diHOME or methyl acetate vehicle in 0.1% BSA w/v in PBS for 15 minutes before cells were scraped from tissue culture plates into homogenization buffer and membranes were separated according to previously published protocols (Nishiumi, S. & Ashida, H., Bioscience, biotechnology, and biochemistry. 71, 2343-2346 (2007)). Protein lysates were stored at −20° C. until further use. Protein concentrations were determined by using the Pierce BCA kit (Life Technologies) according to instructions. For immunoblots, lysates were diluted into Laemmli buffer and boiled, then loaded onto 10% Tris gels for SDS-PAGE. After complete separation of the proteins, these were transferred on a PVDF membrane (Amersham Biosciences), blocked in western blocking buffer (Roche), and primary antibodies listed in Table 1, below, were applied in blocking buffer over night at 4° C. After washing 4× for 15 min with TBS-T, secondary antibodies were applied for 1 h in blocking buffer. Membranes were washed again 3× times for 15 min in TBS-T and developed using chemiluminescence (ThermoFisher). After scanning films, densitometry was analyzed using ImageJ software.

BAT [1] = assay: In vivo radiolabeled organ distribution studies (oleate, glucose, triolein); conditions: mice
Protocol: For in vivo fatty acid organ distribution studies, an oleate/^3H-oleate tracer mix was complexed to fatty acid-free BSA (Schlein, et al., Cell Metab. 23, 441-453 (2016)) and injected into the tail vein of wild type C57BL/6J mice 15 minutes after treatment with either vehicle, 1 μg/kg body weight 12,13-diHOME in 0.1% BSA PBS or NE. Similarly, radiolabeled organ distribution studies were performed in mice either by injection into the tail vein with 2-desoxy-D-[^14C]-glucose (PerkinElmer, 0.025 mCi per kg) in PBS or orally gavaged with 10 mL/kg olive oil (Sigma) containing [9,10-^3H(N)]-triolein (PerkinElmer, 0.3 mCi/kg). In all assays, organs were harvested after 15 minutes under terminal anesthesia and systemic perfusion with PBS-heparin (10 U/ml) via the left heart ventricle. Tissues were homogenized by using Solvable (PerkinElmer) and disintegrations per minute per organ data were calculated by scintillation counting.

[2] = Blood pressure and pulse by the tail cuff method; type: in vivo; conditions: mice, acute pretreatment
Protocol: For cold tolerance assay, mice were injected retro-orbitally with 1 μg/kg body weight 12,13-diHOME (purchased from Cayman Chemical Company) in 0.1% w/v BSA in PBS or vehicle, then immediately placed in a cold room maintained at 4° C. and body core temperature was determined by rectal probe measurements. Mice injected retro-orbitally were also used to measure blood pressure and pulse with the tail cuff method (Hatteras Instruments).

WT-1 brown adipocytes = assay: 14C-labeled palmitic acid uptake and oxidation; type: cell-based; conditions: mature brown adipocytes
Protocol: FA uptake and oxidation were determined by measuring both ^14C-labeled palmitic acid uptake and conversion of ^14C-labeled palmitic acid into CO2. WT-1 brown preadipocytes were differentiated according to a standard adipogenic differentiation protocol for 9 days before cells were serum starved for 1 hour. Cells were treated with 1 μM 12,13-diHOME or methyl acetate vehicle in 0.1% w/v BSA in PBS for 15 minutes before the culture medium was removed, and cells were incubated with DMEM/H containing 4% FA-free BSA w/v in PBS, 0.5 mM palmitic acid, and 0.2 μCi/mL [1-^14C]-palmitic acid (PerkinElmer Life and Analytical Science, Waltham, Mass.) for 1 h. The incubation medium was transferred to a vial containing 1M acetic acid, capped quickly, and allowed to incubate for 1 h for CO2 gas to be released. The CO2 released was absorbed by hyamine hydroxide, and activity was counted. FA oxidation was calculated from CO2 generated. To measure fatty acid uptake, cells were rinsed twice with PBS and lysed after incubation with [1-^14C]-palmitic acid. Lipids were extracted using a chloroform-methanol mixture (2:1), and ^14C-counts were determined in the organic phase. Protein concentrations were determined by using the Pierce BCA kit (Life Technologies) according to instructions, and FA uptake (^14C lipids in the cells) and oxidation (^14CO2 generated) were normalized to protein content. […]

BAT [3] = assay: In vivo bioluminescent fatty acid uptake (FFA-SS-Luc) in UCP1cre+/− Rosa(stop)Luc+/− mice; conditions: 1 ug/kg, compared to vehicle
Protocol: For in vivo bioluminescent fatty acid uptake experiments, UCP1cre^+/- mice (Stock no. 024670) were bred with Rosa(stop)Luc^+/+ (Stock no. 005125), both obtained from The Jackson Laboratory. Male offspring carrying the UCP1-cre allele were injected retro-orbitally with 1 ug/kg body weight 12,13-diHOME in 0.1% BSA PBS or vehicle, and all mice were co-injected with 2 μm FFA-SS-Luc ([…] Medical). Mice were anesthetized with isofluorane and imaged using the IVIS Spectrum CT using sequential 30 s exposures for 1 hour. Data was analyzed using Living Image Software and movies were assembled from individual images using ImageJ.

mature brown adipocytes = assay: In vitro fatty acid uptake (FFA-SS-Luc) in brown adipocytes constitutively expressing luciferase; type: cell-based, mice; conditions: 1 μM for 15 minutes, 10 μM FFA-SS-Luc
Protocol: Stromal vascular cells were isolated from interscapular brown adipose tissue dissected from TgLuc mice (Stock no. 008450) obtained from The Jackson Laboratory. Cells were immortalized and differentiated into adipocytes in vitro according to the WT-1 protocol (Tseng, Y. H. et al., Mol. Cell Biol. 24, 1918-1929 (2004)). After 1 hour of serum starvation, mature adipocytes were treated with 1 μM 12,13-diHOME or methyl acetate vehicle in 0.1% w/v BSA in PBS for 15 minutes. After this treatment, cells were incubated with 10 μm FFA-SS-Luc (Intrace Medical) and imaged using the IVIS Spectrum CT using sequential 30 s exposures for 1 hour. Data was analyzed using Living Image Software and movies were assembled from individual images using ImageJ. All cultures were confirmed to be Mycoplasma free.

## CCCCCC(O)C(O)C/C=C\CCCCCCCC(=O)O (centres unmarked) [12,13-diHOME, 12,13-dihydroxy-9Z-octadecenoic acid]
CD36
  membrane translocation of the low glycosylation form of CD36: robustly induced
BAT [1]; 1 μg/kg, radiolabeled oleate, similar level achieved by NE
  FA uptake into BAT: significant increase
BAT [1]; radiolabeled glucose, similar level achieved by NE
  glucose uptake into BAT: significant increase
BAT [1]; triglyceride delivered by oral gavage
  BAT specific uptake of radiolabeled triglyceride: enhanced
[2]
  blood pressure: no effect
  diastolic pressure: very transient increase
  pulse: no effect
WT-1 brown adipocytes; 1 μM for 15 minutes, 14C palmitic acid
  radiolabeled FA uptake: markedly increased
WT-1 brown adipocytes; 1 μM, 14C palmitic acid to CO2
  FA oxidation: trend to increase
BAT [3]
  luminescent signal in BAT (brown adipocyte FA uptake): significantly increased
Mature brown adipocytes
  FFA-SS-Luc uptake in vitro: significantly increased
